Results from US20220281848A1, “PYRAZOLE-SUBSTITUTED PYRROLIDINONES AS HERBICIDES” (FMC Corporation, priority 2019, published 2022).

How the values were obtained:
Type in all cases: in vivo
Conditions in all cases: after 13 d
[1] = tested on: giant foxtail (Setaria faberi, SETFA); assay: Test A pre-emergence, giant foxtail
Description: (§1) Seeds of corn (Zea mays, ZEAMX), giant foxtail (Setaria faberi, SETFA), barnyardgrass (Echinochloa crus-galli, ECHCG), ivy-leaved morning glory (Ipomoea hederacea, IPOHE), redroot pigweed (Amaranthus retroflexus, AMARE) and velvetleaf (Abutilon theophrasti, ABUTH) were sown in standard soil in pots. After cultivation for one day under controlled conditions in a glasshouse (at 24/16° C., day/night; 14 h light; 65% humidity), the plants were sprayed with an aqueous spray solution derived from the formulation of the technical active ingredient in acetone/water (50:50) solution containing 0.5% Tween 20 (polyoxyethylene sorbitan monolaurate, CAS RN 9005-64-5) to give a final dose of 15.625, 62.5 or 250 g/ha of test compound.
(§2) The test plants were then grown under controlled conditions in a glasshouse (at 24/16° C., day/night; 14 h light; 65% humidity) and watered twice daily. After 13 d the test was evaluated (100=total damage to plant; 0=no damage to plant).

[2] = tested on: giant foxtail (Setaria faberi, SETFA); assay: Test A post-emergence, giant foxtail
Description: as §1, with “IPOHE)),” for “IPOHE),”, “8 d” for “one day”
(§3) The test plants were then grown on under controlled conditions in a glasshouse (at 24/16° C., day/night; 14 h light; 65% humidity) and watered twice daily. After 13 d the test was evaluated (100=total damage to plant; 0=no damage to plant).

[3] = tested on: redroot pigweed (Amaranthus retroflexus, AMARE); assay: Test A pre-emergence, redroot pigweed
Description: as §1, §2

corn (Zea mays, ZEAMX) [4] = assay: Test A pre-emergence, corn
Description: as §1, §2

[5] = tested on: velvetleaf (Abutilon theophrasti, ABUTH); assay: Test A pre-emergence, velvetleaf
Description: as §1, §2

[6] = tested on: velvetleaf (Abutilon theophrasti, ABUTH); assay: Test A post-emergence, velvetleaf
Description: as §1, with “IPOHE)),” for “IPOHE),”, “8 d” for “one day”
as §3

[7] = tested on: ivy-leaved morning glory (Ipomoea hederacea, IPOHE); assay: Test A post-emergence, ivy-leaved morning glory
Description: as §1, with “IPOHE)),” for “IPOHE),”, “8 d” for “one day”
as §3

[8] = tested on: redroot pigweed (Amaranthus retroflexus, AMARE); assay: Test A post-emergence, redroot pigweed
Description: as §1, with “IPOHE)),” for “IPOHE),”, “8 d” for “one day”
as §3

corn (Zea mays, ZEAMX) [9] = assay: Test A post-emergence, corn
Description: as §1, with “IPOHE)),” for “IPOHE),”, “8 d” for “one day”
as §3

[10] = tested on: barnyardgrass (Echinochloa crus-galli, ECHCG); assay: Test A pre-emergence, barnyardgrass
Description: as §1, §2

[11] = tested on: barnyardgrass (Echinochloa crus-galli, ECHCG); assay: Test A post-emergence, barnyardgrass
Description: as §1, with “IPOHE)),” for “IPOHE),”, “8 d” for “one day”
as §3

[12] = tested on: ivy-leaved morning glory (Ipomoea hederacea, IPOHE); assay: Test A pre-emergence, ivy-leaved morning glory
Description: as §1, §2

## CN1CC(c2cc(Cl)n(C)n2)C(C(=O)Nc2ccc(F)cc2F)C1=O (racemic) [Compound 29]
[1]; Pre-Emergence at 15.625 g/ha
  damage to plant (100=total damage; 0=no damage) SETFA: 20
[1]; Pre-Emergence at 62.5 g/ha
  damage to plant (100=total damage; 0=no damage) SETFA: 30
[1]; Pre-Emergence at 250 g/ha
  damage to plant (100=total damage; 0=no damage) SETFA: 80
[2]; Post-Emergence at 15.625 g/ha
  damage to plant (100=total damage; 0=no damage) SETFA: 10
[2]; Post-Emergence at 62.5 g/ha
  damage to plant (100=total damage; 0=no damage) SETFA: 20
[2]; Post-Emergence at 250 g/ha
  damage to plant (100=total damage; 0=no damage) SETFA: 60
[3]; Pre-Emergence at 15.625 g/ha
  damage to plant (100=total damage; 0=no damage) AMARE: 0
[3]; Pre-Emergence at 62.5 g/ha
  damage to plant (100=total damage; 0=no damage) AMARE: 0
[3]; Pre-Emergence at 250 g/ha
  damage to plant (100=total damage; 0=no damage) AMARE: 0
Corn (Zea mays, ZEAMX) [4]; Pre-Emergence at 15.625 g/ha
  damage to plant (100=total damage; 0=no damage) ZEAMX: 0
Corn (Zea mays, ZEAMX) [4]; Pre-Emergence at 62.5 g/ha
  damage to plant (100=total damage; 0=no damage) ZEAMX: 10
Corn (Zea mays, ZEAMX) [4]; Pre-Emergence at 250 g/ha
  damage to plant (100=total damage; 0=no damage) ZEAMX: 10
[5]; Pre-Emergence at 15.625 g/ha
  damage to plant (100=total damage; 0=no damage) ABUTH: 0
[5]; Pre-Emergence at 62.5 g/ha
  damage to plant (100=total damage; 0=no damage) ABUTH: 0
[5]; Pre-Emergence at 250 g/ha
  damage to plant (100=total damage; 0=no damage) ABUTH: 0
[6]; Post-Emergence at 15.625 g/ha
  damage to plant (100=total damage; 0=no damage) ABUTH: 0
[6]; Post-Emergence at 62.5 g/ha
  damage to plant (100=total damage; 0=no damage) ABUTH: 0
[6]; Post-Emergence at 250 g/ha
  damage to plant (100=total damage; 0=no damage) ABUTH: 0
[7]; Post-Emergence at 15.625 g/ha
  damage to plant (100=total damage; 0=no damage) IPOHE: 0
[7]; Post-Emergence at 62.5 g/ha
  damage to plant (100=total damage; 0=no damage) IPOHE: 0
[7]; Post-Emergence at 250 g/ha
  damage to plant (100=total damage; 0=no damage) IPOHE: 10
[8]; Post-Emergence at 15.625 g/ha
  damage to plant (100=total damage; 0=no damage) AMARE: 10
[8]; Post-Emergence at 62.5 g/ha
  damage to plant (100=total damage; 0=no damage) AMARE: 30
[8]; Post-Emergence at 250 g/ha
  damage to plant (100=total damage; 0=no damage) AMARE: 40
Corn (Zea mays, ZEAMX) [9]; Post-Emergence at 15.625 g/ha
  damage to plant (100=total damage; 0=no damage) ZEAMX: 0
Corn (Zea mays, ZEAMX) [9]; Post-Emergence at 62.5 g/ha
  damage to plant (100=total damage; 0=no damage) ZEAMX: 0
Corn (Zea mays, ZEAMX) [9]; Post-Emergence at 250 g/ha
  damage to plant (100=total damage; 0=no damage) ZEAMX: 0
[10]; Pre-Emergence at 15.625 g/ha
  damage to plant (100=total damage; 0=no damage) ECHCG: 30
[10]; Pre-Emergence at 62.5 g/ha
  damage to plant (100=total damage; 0=no damage) ECHCG: 70
[10]; Pre-Emergence at 250 g/ha
  damage to plant (100=total damage; 0=no damage) ECHCG: 80
[11]; Post-Emergence at 15.625 g/ha
  damage to plant (100=total damage; 0=no damage) ECHCG: 20
[11]; Post-Emergence at 62.5 g/ha
  damage to plant (100=total damage; 0=no damage) ECHCG: 50
[11]; Post-Emergence at 250 g/ha
  damage to plant (100=total damage; 0=no damage) ECHCG: 60
[12]; Pre-Emergence at 15.625 g/ha
  damage to plant (100=total damage; 0=no damage) IPOHE: 0
[12]; Pre-Emergence at 62.5 g/ha
  damage to plant (100=total damage; 0=no damage) IPOHE: 0
[12]; Pre-Emergence at 250 g/ha
  damage to plant (100=total damage; 0=no damage) IPOHE: 0

## CN1CC(c2nn(C)c(Cl)c2Br)C(C(=O)Nc2ccc(F)cc2F)C1=O (racemic) [Compound 30]
[1]; Pre-Emergence at 15.625 g/ha
  damage to plant (100=total damage; 0=no damage) SETFA: 0
[1]; Pre-Emergence at 62.5 g/ha
  damage to plant (100=total damage; 0=no damage) SETFA: 0
[1]; Pre-Emergence at 250 g/ha
  damage to plant (100=total damage; 0=no damage) SETFA: 10
[2]; Post-Emergence at 15.625 g/ha
  damage to plant (100=total damage; 0=no damage) SETFA: 10
[2]; Post-Emergence at 62.5 g/ha
  damage to plant (100=total damage; 0=no damage) SETFA: 20
[2]; Post-Emergence at 250 g/ha
  damage to plant (100=total damage; 0=no damage) SETFA: 50
[3]; Pre-Emergence at 15.625 g/ha
  damage to plant (100=total damage; 0=no damage) AMARE: 0
[3]; Pre-Emergence at 62.5 g/ha
  damage to plant (100=total damage; 0=no damage) AMARE: 0
[3]; Pre-Emergence at 250 g/ha
  damage to plant (100=total damage; 0=no damage) AMARE: 10
Corn (Zea mays, ZEAMX) [4]; Pre-Emergence at 15.625 g/ha
  damage to plant (100=total damage; 0=no damage) ZEAMX: 0
Corn (Zea mays, ZEAMX) [4]; Pre-Emergence at 62.5 g/ha
  damage to plant (100=total damage; 0=no damage) ZEAMX: 0
Corn (Zea mays, ZEAMX) [4]; Pre-Emergence at 250 g/ha
  damage to plant (100=total damage; 0=no damage) ZEAMX: 0
[5]; Pre-Emergence at 15.625 g/ha
  damage to plant (100=total damage; 0=no damage) ABUTH: 0
[5]; Pre-Emergence at 62.5 g/ha
  damage to plant (100=total damage; 0=no damage) ABUTH: 0
[5]; Pre-Emergence at 250 g/ha
  damage to plant (100=total damage; 0=no damage) ABUTH: 0
[6]; Post-Emergence at 15.625 g/ha
  damage to plant (100=total damage; 0=no damage) ABUTH: 0
[6]; Post-Emergence at 62.5 g/ha
  damage to plant (100=total damage; 0=no damage) ABUTH: 0
[6]; Post-Emergence at 250 g/ha
  damage to plant (100=total damage; 0=no damage) ABUTH: 0
[7]; Post-Emergence at 15.625 g/ha
  damage to plant (100=total damage; 0=no damage) IPOHE: 0
[7]; Post-Emergence at 62.5 g/ha
  damage to plant (100=total damage; 0=no damage) IPOHE: 0
[7]; Post-Emergence at 250 g/ha
  damage to plant (100=total damage; 0=no damage) IPOHE: 0
[8]; Post-Emergence at 15.625 g/ha
  damage to plant (100=total damage; 0=no damage) AMARE: 0
[8]; Post-Emergence at 62.5 g/ha
  damage to plant (100=total damage; 0=no damage) AMARE: 0
[8]; Post-Emergence at 250 g/ha
  damage to plant (100=total damage; 0=no damage) AMARE: 10
Corn (Zea mays, ZEAMX) [9]; Post-Emergence at 15.625 g/ha
  damage to plant (100=total damage; 0=no damage) ZEAMX: 0
Corn (Zea mays, ZEAMX) [9]; Post-Emergence at 62.5 g/ha
  damage to plant (100=total damage; 0=no damage) ZEAMX: 0
Corn (Zea mays, ZEAMX) [9]; Post-Emergence at 250 g/ha
  damage to plant (100=total damage; 0=no damage) ZEAMX: 0
[10]; Pre-Emergence at 15.625 g/ha
  damage to plant (100=total damage; 0=no damage) ECHCG: 0
[10]; Pre-Emergence at 62.5 g/ha
  damage to plant (100=total damage; 0=no damage) ECHCG: 10
[10]; Pre-Emergence at 250 g/ha
  damage to plant (100=total damage; 0=no damage) ECHCG: 20
[11]; Post-Emergence at 15.625 g/ha
  damage to plant (100=total damage; 0=no damage) ECHCG: 0
[11]; Post-Emergence at 62.5 g/ha
  damage to plant (100=total damage; 0=no damage) ECHCG: 20
[11]; Post-Emergence at 250 g/ha
  damage to plant (100=total damage; 0=no damage) ECHCG: 50
[12]; Pre-Emergence at 15.625 g/ha
  damage to plant (100=total damage; 0=no damage) IPOHE: 0
[12]; Pre-Emergence at 62.5 g/ha
  damage to plant (100=total damage; 0=no damage) IPOHE: 0
[12]; Pre-Emergence at 250 g/ha
  damage to plant (100=total damage; 0=no damage) IPOHE: 10
